{"source": "patent US10202371B2", "about": "“Oxazolidin-2-one-pyrimidine derivatives and the use thereof as phosphatidylinositol-3-kinase inhibitors” (Novartis AG, priority 2012, dated 2019)", "key": {"human mTOR (GST-mTOR)": {"target": "human mTOR (GST-mTOR) (Homo sapiens (Human), UniProt P42345)", "assay": "Binding assay mTor (Lanthascreen kinase binding assay)", "conditions": "Tracer-314", "source_text": "Catalytically active human PI3Kα, PI3Kβ, PI3Kδ, and mTOR were cloned, expressed and purtified as described (Maira S M, Stauffer F, Brueggen J, Furet P, Schnell C, Fritsch C, Brachmann S, Chène P, de Pover A, Schoemaker K, Fabbro D, Gabriel D, Simonen M, Murphy L, Finan P, Sellers W, Garcia-Echeverria C (2008), Mol Cancer Ther. 7:1851-63 and Maira S M, Pecchi S, Brueggen J, Huh K, Schnell C, Fritsch C, Nagel T, Wiesmann M, Brachmann S, Dorsch M, Chène P, Schoemaker K, De Pover A, Menezes D, Fabbro D, Sellers W, Garcia-Echeverria C, Voliva CF (2011), Mol. Cancer Ther. accepted).\nTR-FRET assays for protein kinases uses a long-lifetime lanthanide Terbium or Europium chelates as the donor species which overcome interference by compound autofluorescence or light scatter from precipitated compounds, by introducing a delay after excitation by a flashlamp excitation source. Results are often expressed as a ratio of the intensities of the acceptor and donor fluorophores. The ratiometric nature of such a value corrects for differences in assay volumes between wells, as well as corrects for quenching effects due to colored compounds.\nBinding Assays are based on the binding and displacement of an Alexa Fluor® 647-labeled, ATP-competitive kinase inhibitors to the kinase of interest. Invitrogen's “Kinase Tracers” have been developed to address a wide range of kinase targets and are based on ATP-competitive kinase inhibitors, making them suitable for detection of any compounds that bind to the ATP site or to an allosteric site altering the conformation of the ATP site. Inhibitors that bind the ATP site include both Type I kinase inhibitors, which bind solely to the ATP site, and Type II inhibitors (e.g., Gleevec®/Imatinib, Sorafenib, BIRB-796), which bind to both the ATP site and a hydrophobic site exposed in the DFG-out (non-active) conformation. […] The sole exception was a substrate-competitive compound, and thus not a true allosteric inhibitor.\nIn contrast to most fluorescence-based kinase activity assays, LanthaScreen® Eu^3+ Kinase Binding Assays can be read continuously, which facilitates evaluation of compounds with slow binding kinetics. Also, unlike most activity assays, binding assays can be performed using either active or non-activated kinase preparations, which enables characterization of compounds that bind preferentially to non-activated kinases, such as Gleevec®/imatinib and some allosteric inhibitors.\nIn the Lanthascreen™ kinase binding assay, the donor (Eu^3+-anti-GST antibody) is excited at 340 nm and will transfer its energy to the acceptor (Alexa Fluor® 647-labeled ATP-competitive kinase inhibitor=Tracer-314). The emission from the Tracer-314 (Alexa Fluor® 647 inhibitor) can be monitored with a filter centered at 665 nm because it is located between the emission peaks of the donor, which is measured at 615/620 nm. The binding of both, the Tracer-314 and Eu^3+-anti-GST antibody, to the kinase results in a high degree of FRET from the Eu^3+-donor fluorophore to the Alexa-Fluor® 647-acceptor fluorophore on the Tracer-314. Binding of an inhibitor to the kinase competes for binding with the tracer, resulting in a loss of FRET.\n50 nL of compound dilutions were dispensed onto white 384-well small volume polystyrene plate as described in section 2.2. Then 5 μL of GST-mTOR and Europium-anti-GST antibody followed by 5 μL of tracer-314 (final assay volume 10 μL) are incubated at RT. The standard reaction buffer for the Lanthascreen™ kinase binding assay contained 50 mM HEPES pH 7.5, 5 mM MgCl2, 1 mM EGTA, 0.01% Pluronic F-127. Plates are read 60 mins later in a Synergy2 reader using an integration time of 0.2 microseconds and a delay of 0.1 microseconds.\nTo calculate the emission ratio, the signal emitted at 665 nm from the acceptor (Alexa Fluor® 647-labeled Tracer-314) is divided by the signal emitted at 620 nm from the donor (Eu^3+ anti-GST antibody) […]"}, "[1]": {"target": "mTOR (TSC1-/- MEFs cells) (Mus musculus (Mouse), UniProt Q9JLN9)", "assay": "Cellular assay mTOR, phospho-T389 S6K1 SureFire in TSC1-/- MEF cells", "assay_type": "cell-based", "conditions": "read-out: mTOR TS6K(T389)_TSC1ko/ IC50", "source_text": "A cell based assay (384-well format) was developed for determination of compound effects on cellular mTOR activity in MEF (mouse embryo fibrobrasts) cells derived from mice lacking TSC1 (Tuberosclerosis Complex1) a potent suppressor of mTOR activity. Due to lack of TSC1, mTOR is constitutively activated resulting in permanent phoshorylation of Thr 389 of S6 kinase 1 (S6K1) which is one of the downstream targets of mTOR.\nUsing a SureFire Kit that enables to determine the phosphorylation of Thr389 on the S6K1 an assay was developed, validated and implemented in the Alpha-Screen format that allows the quantitative determination of phospho-T389 of S6K1 in cell lysates. […] These were in agreement with those values obtained with the biochemical mTOR ATP-binding assay enabling a quantitative comparison of potency of mTOR inhibitors.\nTSC1−/− MEFs cells (Kwiatkowski, D. J., Zhang, H., Bandura, J. L., Heiberger, K. M., Glogauer, M., el-Hashemite, N., and Onda, H. (2002) Hum. Mol. Genet. 11, 525-534) were cultured in DMEM high glucose medium supplemented with 10% FBS (Invitrogen), 2 mM Glutamine and 1% (w/v) Penicillin/Streptomycin at 37° C., 5% CO2.\nThe SureFire kit for determination of P70S6kinase phosphorylation was purchased from Perkin Elmer (p70S6K p-T389, #TGR70S50K) and the assay was performed according to the instructions of the supplier and according to the generic method for SureFire assays. Shortly, 5 μL cell lysate per well were transferred to 384-well white proxy-plates (for luminescent readout) and mixed with […] and […] (final volume: 12 μL). After 3 h incubation in the dark at RT luminescence was read with the Envision Reader (Perkin Elmer). Untreated cells were used as control (high control) and cells treated with 3 μM BEZ235 were used as low control. The assay window between the signals obtained for the high and the low controls were defined as 100% and compound effects were expressed as percent inhibition. IC50 values were calculated from the dose response curves by graphical extrapolation."}, "[2]": {"assay": "Photostability in light stability chamber", "assay_type": "physicochemical", "conditions": "1.0 mg/ml in ethanol, 19620 kJ/m^2 over 13 h, 15° C., UPLC 254 nm", "procedure": "Samples investigated for light stability were treated in a light stability chamber (Atlas CPS+, Serial Number 0704013). Solutions of 1.0 mg/ml in ethanol were prepared for each molecule and aliquots of 0.5 mL were dispensed into suitable micro tubes. All measurements were done in duplicate and compared to a reference wrapped in aluminium foil during light exposure. Solutions were exposed to 19620 kJ/m^2 over 13 h. Samples were kept at 15° C. during the experiment. […] The peak areas were automatically integrated, and the degradation percentage calculated as the difference between the corresponding peak area percentage of the reference sample and the average peak area percentage of the exposed samples (duplicate)."}}, "data": [{"compound": "C[C@H]1[C@H](c2nccs2)OC(=O)N1c1cc(-c2cnc(N)nc2C(F)(F)F)nc(N2CCOCC2)n1", "note": "[Example 1, (4S,5R)-3-(2′-Amino-2-morpholin-4-yl-4′-trifluoromethyl-[4,5′]bipyrimidinyl-6-yl)-4-methyl-5-thiazol-2-yl-oxazolidin-2-one]", "values": [{"measurement": "IC50", "setting": "human mTOR (GST-mTOR)", "value": 251, "unit": "nM"}, {"measurement": "IC50", "setting": "[1]", "value": 243, "unit": "nM"}, {"measurement": "% degradation in photostability assay (average)", "setting": "[2]", "value": 8, "unit": "%"}]}, {"compound": "CC[C@H]1[C@H](c2nccs2)OC(=O)N1c1cc(-c2cnc(N)nc2C(F)(F)F)nc(N2CCOCC2)n1", "note": "[Example 7]", "values": [{"measurement": "IC50", "setting": "human mTOR (GST-mTOR)", "value": 2700, "unit": "nM"}]}, {"compound": "Nc1ncc(-c2cc(N3C(=O)O[C@@H](c4ccc(OCCCO)cc4)[C@@H]3CO)nc(N3CCOCC3)n2)c(C(F)(F)F)n1", "note": "[Example 14]", "values": [{"measurement": "IC50", "setting": "human mTOR (GST-mTOR)", "value": 490, "unit": "nM"}, {"measurement": "IC50", "setting": "[1]", "value": 724, "unit": "nM"}, {"measurement": "% degradation in photostability assay (average)", "setting": "[2]", "value": 8, "unit": "%"}]}, {"compound": "C[C@H]1[C@@H](c2nccs2)OC(=O)N1c1cc(-c2cnc(N)nc2C(F)(F)F)nc(N2CCOCC2)n1", "note": "[Example 11]", "values": [{"measurement": "IC50", "setting": "human mTOR (GST-mTOR)", "value": 870, "unit": "nM"}, {"measurement": "IC50", "setting": "[1]", "value": 747, "unit": "nM"}]}, {"compound": "CCC1C(c2cccnc2)OC(=O)N1c1cc(-c2cnc(N)nc2C(F)(F)F)nc(N2CCOCC2)n1", "note": "(stereo not drawn) [Example 8]", "values": [{"measurement": "IC50", "setting": "human mTOR (GST-mTOR)", "value": 960, "unit": "nM"}]}, {"compound": "C[C@H]1[C@H](c2ccccc2)OC(=O)N1c1cc(-c2cnc(N)nc2C(F)(F)F)nc(N2CCOCC2)n1", "note": "[Example 5]", "values": [{"measurement": "IC50", "setting": "human mTOR (GST-mTOR)", "value": 2250, "unit": "nM"}, {"measurement": "IC50", "setting": "[1]", "value": 371, "unit": "nM"}, {"measurement": "% degradation in photostability assay (average)", "setting": "[2]", "value": 17, "unit": "%"}]}, {"compound": "CC[C@H]1[C@H](c2ccc(OC)cc2)OC(=O)N1c1cc(-c2cnc(N)nc2C(F)(F)F)nc(N2CCOCC2)n1", "note": "(relative stereo) [Example 2, (4S*,5S*)-3-(2′-amino-2-morpholino-4′-(trifluoromethyl)-[4,5′-bipyrimidin]-6-yl)-4-ethyl-5-(4-methoxyphenyl)oxazolidin-2-one]", "values": [{"measurement": "IC50", "setting": "human mTOR (GST-mTOR)", "value": 2800, "unit": "nM"}, {"measurement": "% degradation in photostability assay (average)", "setting": "[2]", "value": 3, "unit": "%"}]}, {"compound": "COc1ccc([C@@H]2OC(=O)N(c3cc(-c4cnc(N)nc4C(F)(F)F)nc(N4CCOCC4)n3)[C@H]2CO)cc1", "note": "[Example 3, (4S,5S)-3-(2′-Amino-2-morpholino-4′-(trifluoromethyl)-[4,5′-bipyrimidin]-6-yl)-4-(hydroxymethyl)-5-(4-methoxyphenyl)oxazolidin-2-one]", "values": [{"measurement": "IC50", "setting": "human mTOR (GST-mTOR)", "value": 850, "unit": "nM"}, {"measurement": "IC50", "setting": "[1]", "value": 159, "unit": "nM"}, {"measurement": "% degradation in photostability assay (average)", "setting": "[2]", "value": 3, "unit": "%"}]}, {"compound": "COCCOc1ccc([C@@H]2OC(=O)N(c3cc(-c4cnc(N)nc4C(F)(F)F)nc(N4CCOCC4)n3)[C@H]2CO)cc1", "note": "[Example 12]", "values": [{"measurement": "IC50", "setting": "human mTOR (GST-mTOR)", "value": 750, "unit": "nM"}, {"measurement": "IC50", "setting": "[1]", "value": 274, "unit": "nM"}, {"measurement": "% degradation in photostability assay (average)", "setting": "[2]", "value": 12, "unit": "%"}]}, {"compound": "Nc1ncc(-c2cc(N3C(=O)O[C@@H](c4ccc(OCCO)cc4)[C@@H]3CO)nc(N3CCOCC3)n2)c(C(F)(F)F)n1", "note": "[Example 13]", "values": [{"measurement": "IC50", "setting": "human mTOR (GST-mTOR)", "value": 230, "unit": "nM"}, {"measurement": "IC50", "setting": "[1]", "value": 1070, "unit": "nM"}, {"measurement": "% degradation in photostability assay (average)", "setting": "[2]", "value": 4, "unit": "%"}]}, {"compound": "Nc1ncc(-c2cc(N3C(=O)O[C@@H](c4ccccc4)[C@@H]3CO)nc(N3CCOCC3)n2)c(C(F)(F)F)n1", "note": "[Example 10]", "values": [{"measurement": "IC50", "setting": "human mTOR (GST-mTOR)", "value": 1010, "unit": "nM"}, {"measurement": "IC50", "setting": "[1]", "value": 221, "unit": "nM"}, {"measurement": "% degradation in photostability assay (average)", "setting": "[2]", "value": 7, "unit": "%"}]}]}
